In the test the test system is BDF1 mice, P388 leukemia ip, median survival T/C. The test is described as follows: NCI In Vivo Anticancer Drug Screen. Data for tumor model P388 Leukemia (intraperitoneal) in B6D2F1 (BDF1) mice. Conditions: endpoint: median survival time, higher = longer survival. Put shortly:
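Mice carrying the transplantable tumour receive compound or vehicle. Survival is followed in each arm, and the treated measure is divided by the vehicle measure.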

Where [1] appears, read: dose: 100.0 mg/kg/injection, schedule: Q04DX003 (ip), vehicle: other.
Where [2] appears, read: dose: 200.0 mg/kg/injection, schedule: Q04DX003 (ip), vehicle: other.
Where [3] appears, read: dose: 400.0 mg/kg/injection, schedule: Q04DX003 (ip), vehicle: other.
Where [4] appears, read: dose: 100.0 mg/kg/injection, schedule: Q04DX003 (ip), vehicle: saline with Tween-80.
[5] abbreviates: dose: 100.0 mg/kg/injection, schedule: Q01DX009 (ip), vehicle: Klucel (hydroxypropylcellulose) (HPC).
[6] abbreviates: dose: 100.0 mg/kg/injection, schedule: Q04DX003 (ip), vehicle: Klucel (hydroxypropylcellulose) (HPC).
Setting [7] is: dose: 200.0 mg/kg/injection, schedule: Q01DX009 (ip), vehicle: Klucel (hydroxypropylcellulose) (HPC).
[8] abbreviates: dose: 200.0 mg/kg/injection, schedule: Q04DX003 (ip), vehicle: Klucel (hydroxypropylcellulose) (HPC).
[9] abbreviates: dose: 400.0 mg/kg/injection, schedule: Q04DX003 (ip), vehicle: Klucel (hydroxypropylcellulose) (HPC).
Where [10] appears, read: dose: 100.0 mg/kg/injection, schedule: Q01DX009 (ip), vehicle: saline with Tween-80.
Where [11] appears, read: dose: 200.0 mg/kg/injection, schedule: Q01DX009 (ip), vehicle: saline with Tween-80.
Where [12] appears, read: dose: 200.0 mg/kg/injection, schedule: Q04DX003 (ip), vehicle: saline with Tween-80.
Where [13] appears, read: dose: 400.0 mg/kg/injection, schedule: Q04DX003 (ip), vehicle: saline with Tween-80.
The mark [14] stands for this setting: dose: 50.0 mg/kg/injection, schedule: Q01DX009 (ip), vehicle: saline with Tween-80.

SMILES strings stand for the structures. Inconclusive results and toxic doses are left out.

For the compound `O=C(/C=C\c1ccccc1)/C=C/c1ccccc1`, the T/C reads like this: (dose: 100.0 mg/kg/injection, schedule: Q04DX003 (sc), vehicle: olive oil, sesame oil, peanut oil) 100 % of control; (dose: 200.0 mg/kg/injection, schedule: Q04DX003 (sc), vehicle: olive oil, sesame oil, peanut oil) 100 % of control; (dose: 400.0 mg/kg/injection, schedule: Q04DX003 (sc), vehicle: olive oil, sesame oil, peanut oil) 100 % of control.

Turning to `CC(=O)NC(CCC(=O)C=[N+]=N)C(=O)O` (stereo unspecified), the T/C reads like this: (dose: 0.05 mg/kg/injection, schedule: Q01DX010 (ip), vehicle: other) 115 % of control; (dose: 0.1 mg/kg/injection, schedule: Q01DX010 (ip), vehicle: other) 110 % of control; (dose: 0.2 mg/kg/injection, schedule: Q01DX010 (ip), vehicle: other) 120 % of control; (dose: 0.6 mg/kg/injection, schedule: Q01DX010 (ip), vehicle: other) 154 % of control; (dose: 0.8 mg/kg/injection, schedule: Q01DX010 (ip), vehicle: other) 168 % of control; (dose: 1.0 mg/kg/injection, schedule: Q01DX010 (ip), vehicle: other) 100 % of control.

Consider `O=S1(=O)C2CCCCC2(N2CCOCC2)C1c1ccccc1` (stereo unspecified), for which the T/C was 100 % of control under setting [1]; 109 % of control (dose: 178.0 mg/kg/injection, schedule: Q04DX003 (ip), vehicle: other); 104 % of control under setting [2]; 104 % of control (dose: 266.0 mg/kg/injection, schedule: Q04DX003 (ip), vehicle: other); 100 % of control under setting [3].

As to `O=C1CCC(C(=O)N/N=C\C=N/NC(=O)C2CCC(=O)N2)N1` (stereo unspecified), the T/C (dose: 20.0 mg/kg/injection, schedule: Q01DX009 (ip), vehicle: saline with Tween-80) is 91 % of control.

In the case of `C#CCN(C)Cc1ccccc1`, the T/C is, setting by setting: (dose: 50.0 mg/kg/injection, schedule: Q01DX010 (ip), vehicle: saline) 95 % of control; (dose: 100.0 mg/kg/injection, schedule: Q01DX010 (ip), vehicle: saline) 100 % of control; (dose: 200.0 mg/kg/injection, schedule: Q01DX010 (ip), vehicle: saline) 109 % of control.

Take `CCCSCCSCCC`: the T/C (dose: 25.0 mg/kg/injection, schedule: Q04DX003 (ip), vehicle: saline with Tween-80) is 100 % of control; the T/C (dose: 50.0 mg/kg/injection, schedule: Q04DX003 (ip), vehicle: saline with Tween-80) is 109 % of control; the T/C under setting [4] is 113 % of control.

As to `Cc1c(Cl)c(Cl)c(NS(=O)(=O)c2ccccc2)c(NS(=O)(=O)c2ccccc2)c1Cl`, the T/C by setting is: under setting [5], 100 % of control; under setting [6], 90 % of control; under setting [7], 90 % of control; under setting [8], 104 % of control; (dose: 400.0 mg/kg/injection, schedule: Q01DX009 (ip), vehicle: Klucel (hydroxypropylcellulose) (HPC)) 95 % of control; under setting [9], 100 % of control.

For the compound `Clc1ccc(CSc2ncnc3nc[nH]c23)cc1`, the T/C was 100 % of control under setting [10] and 104 % of control under setting [11].

`CC(=O)O[C@]1(C(C)=O)CC[C@H]2[C@@H]3C=C(Cl)C4=CC(=O)[C@@H]5C[C@@H]5[C@]4(C)[C@H]3CC[C@@]21C`: the T/C under setting [5] was 95 % of control; the T/C under setting [6] is 104 % of control; the T/C under setting [7] was 91 % of control; the T/C under setting [8] was 108 % of control; the T/C under setting [9] was 108 % of control.

Consider `O=C(CN1CCOCC1)Nc1cccc(C(F)(F)F)c1`, for which the T/C under setting [4] was 86 % of control, the T/C under setting [12] is 86 % of control and the T/C under setting [13] was 109 % of control.

As to `O=C(NC(CO)C(=O)OCc1ccccc1)OCc1ccccc1` (stereo unspecified), the T/C is 95 % of control under setting [6]; 100 % of control under setting [4]; 87 % of control under setting [8]; 100 % of control under setting [12]; 91 % of control under setting [9]; 100 % of control under setting [13].

Turning to `O=C(O)c1ccc([N+](=O)[O-])s1`, the T/C runs as follows: under setting [14], 90 % of control; under setting [10], 95 % of control; under setting [4], 110 % of control; under setting [12], 100 % of control.

On to `CC(=O)C(Cl)C(C)=O.CC(=O)C(Cl)C(C)=O.CO.CO.[Ni]`, for which the T/C reads like this: (dose: 12.0 mg/kg/injection, schedule: Q01DX001 (ip), vehicle: Klucel (hydroxypropylcellulose) (HPC)) 108 % of control; (dose: 25.0 mg/kg/injection, schedule: Q01DX001 (ip), vehicle: Klucel (hydroxypropylcellulose) (HPC)) 95 % of control; (dose: 50.0 mg/kg/injection, schedule: Q01DX001 (ip), vehicle: Klucel (hydroxypropylcellulose) (HPC)) 112 % of control; (dose: 100.0 mg/kg/injection, schedule: Q01DX001 (ip), vehicle: Klucel (hydroxypropylcellulose) (HPC)) 104 % of control; (dose: 400.0 mg/kg/injection, schedule: Q01DX001 (ip), vehicle: Klucel (hydroxypropylcellulose) (HPC)) 118 % of control.

For `COc1ccc(C(C#N)CC(=O)c2ccc(OCc3ccccc3)c(OC)c2)cc1OC` (stereo unspecified), the T/C (dose: 50.0 mg/kg/injection, schedule: Q04DX003 (ip), vehicle: other) was 96 % of control; the T/C under setting [1] was 88 % of control; the T/C under setting [2] is 87 % of control; the T/C under setting [3] was 90 % of control.

As to `O=[N+]([O-])c1cccc2c([N+](=O)[O-])cccc12`, the T/C was 95 % of control (dose: 100.0 mg/kg/injection, schedule: Q01DX001 (ip), vehicle: saline sonified); 100 % of control (dose: 200.0 mg/kg/injection, schedule: Q01DX001 (ip), vehicle: saline sonified); 115 % of control (dose: 400.0 mg/kg/injection, schedule: Q01DX001 (ip), vehicle: saline sonified).

Consider `CC(=O)Nc1onc(C)c1N`, for which the T/C is, setting by setting: (dose: 50.0 mg/kg/injection, schedule: Q01DX009 (ip), vehicle: saline) 90 % of control; (dose: 100.0 mg/kg/injection, schedule: Q01DX009 (ip), vehicle: saline) 100 % of control; (dose: 200.0 mg/kg/injection, schedule: Q01DX009 (ip), vehicle: saline) 95 % of control.

In the case of `COC(=O)c1cc(O)c(O)c(OC)c1`, the T/C was 111 % of control (dose: 25.0 mg/kg/injection, schedule: Q01DX009 (ip), vehicle: saline with Tween-80); 101 % of control under setting [14]; 86 % of control under setting [10]; 95 % of control under setting [11].

Regarding `C=CC(=O)NC12CC3CC(CC(C3)C1)C2`, the T/C by setting is: under setting [4], 95 % of control; under setting [12], 95 % of control.

For `CC(=O)c1ccccc1OCC(O)CN1CCN(c2ccccc2Cl)CC1` (stereo unspecified), the T/C runs as follows: (dose: 37.5 mg/kg/injection, schedule: Q04DX003 (ip), vehicle: saline with Tween-80) 100 % of control; (dose: 75.0 mg/kg/injection, schedule: Q04DX003 (ip), vehicle: saline with Tween-80) 109 % of control; (dose: 150.0 mg/kg/injection, schedule: Q04DX003 (ip), vehicle: saline with Tween-80) 90 % of control.

Regarding `COc1ccc2nc3c4ccccc4scc-3c2c1`, the T/C is 109 % of control (dose: 25.0 mg/kg/injection, schedule: Q04DX003 (ip), vehicle: Klucel (hydroxypropylcellulose) (HPC)); 109 % of control (dose: 50.0 mg/kg/injection, schedule: Q04DX003 (ip), vehicle: Klucel (hydroxypropylcellulose) (HPC)); 100 % of control under setting [6]; 109 % of control (dose: 148.5 mg/kg/injection, schedule: Q04DX003 (ip), vehicle: Klucel (hydroxypropylcellulose) (HPC)); 116 % of control (dose: 150.0 mg/kg/injection, schedule: Q04DX003 (ip), vehicle: Klucel (hydroxypropylcellulose) (HPC)); 100 % of control (dose: 225.0 mg/kg/injection, schedule: Q04DX003 (ip), vehicle: Klucel (hydroxypropylcellulose) (HPC)). Also, the T/C (dose: 337.5 mg/kg/injection, schedule: Q04DX003 (ip), vehicle: Klucel (hydroxypropylcellulose) (HPC)) was 113 % of control.

With `CSc1ccc(NC(=O)Nc2ccc(N=Nc3ccccc3)cc2)cc1`, the T/C (dose: 42.5 mg/kg/injection, schedule: Q01DX009 (ip), vehicle: Klucel (hydroxypropylcellulose) (HPC)) is 100 % of control; the T/C (dose: 85.0 mg/kg/injection, schedule: Q01DX009 (ip), vehicle: Klucel (hydroxypropylcellulose) (HPC)) is 100 % of control; the T/C (dose: 170.0 mg/kg/injection, schedule: Q01DX009 (ip), vehicle: Klucel (hydroxypropylcellulose) (HPC)) is 100 % of control.

The values above are taken from PubChem BioAssay AID328 (DTP/NCI, 2004).
